For twelve molecules, mortality and pest or weed control results are on record in US12583851B2, “Heteroaryl-substituted pyrazine derivatives as pesticides” (Elanco Animal Health GmbH, priority 2019, dated 2026).

Structures are written as SMILES.

As usually defined, the mortality is the percentage killed. A higher mortality goes with fewer survivors.

What all share (type): in vivo
In experiment [1] the test system is green peach aphid (Myzus persicae). Put plainly: Myzus persicae spray test. The following applies: foliar, 120 h, Chinese cabbage leaf disks, after 5 days. On the procedure:
Myzus persicae—Spray Test
Solvent: 78.0 parts by weight acetone • 1.5 parts by weight dimethylformamide
(§1) Emulsifier: alkylarylpolyglycol ether
To produce a suitable preparation of active compound, 1 part by weight of active compound is mixed with the stated amount of solvents and is diluted with water, containing an emulsifier concentration of 1000 ppm, to the desired concentration. Further test concentrations are prepared by dilution with emulsifier containing water.
Chinese cabbage (Brassica pekinensis) leaf disks infected with all instars of the green peach aphid (Myzus persicae), are sprayed with a preparation of the active ingredient of the desired concentration.
After 5 days mortality in % is determined. 100% means all aphids have been killed and 0% means none of the aphids have been killed.

Experiment [2] relates to fall armyworm larvae (Spodoptera frugiperda). Put plainly: Spodoptera frugiperda spray test. The settings on record: 168 h, maize leaf sections, after 7 days. In short, it runs like this: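 Compound dissolved in acetone/dimethylformamide, diluted in water containing 1000 ppm alkylarylpolyglycol ether emulsifier and sprayed onto maize leaf sections. Dried sections were infested with larvae; % mortality scored after 7 days (100% = all caterpillars killed, 0% = none).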

The subject of experiment [3] is Rhipicephalus (Boophilus) microplus larvae (strain Parkhurst, resistant against synthetic pyrethroids). Put plainly: Rhipicephalus (Boophilus) microplus in-vitro contact test, larval cattle tick. The following applies: after 48 hours, read-out: efficacy (larvae dead or moribund); for pest or weed control at 1 µg/cm2, 100 g/ha: 1 μg/cm^2 (=100 g/ha); for pest or weed control at 5 µg/cm2, 500 g/ha: 5 μg/cm^2 (=500 g/ha). In short, it runs like this: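 Acetone solutions were coated onto glass tube walls (900 ppm gives 5 μg/cm²); after drying, 20–50 pyrethroid-resistant Parkhurst larvae added and held at 27 °C, 85% RH. At 48 h, efficacy as % larvae dead or moribund, judged by loss of negative geotaxis.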

Experiment [4] has as its system adult cat fleas (Ctenocephalides felis). The experiment can be described thus: Ctenocephalides felis in-vitro contact test, adult cat flea. The following applies: after 48 hours, read-out: efficacy (fleas dead or moribund); for pest or weed control at 1 µg/cm2, 100 g/ha: 1 μg/cm^2 (=100 g/ha). In short, it runs like this: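 Acetone solution coated onto glass tube walls; 900 ppm gives 5 μg/cm². Once dry, 5–10 adult fleas per tube held at room temperature for 48 h. Efficacy (%) is the share of fleas dead or moribund, i.e. unable to climb away on a 45–50° C heating plate.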

Experiment [5] relates to larvae of the banded cucumber beetle (Diabrotica balteata). Put plainly: Diabrotica balteata spray test. The settings on record: 168 h, after 7 days, read-out: efficacy (seedling growth); for pest or weed control at 6.4 µg/disc, 20 g/ha: 20 g/ha (=6.4 μg/well); for pest or weed control at 32 µg/disc, 100 g/ha: 100 g/ha (=32 μg/well). In short, it runs like this: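 Germinated wheat seedlings (5 per well, on agar) sprayed with compound in acetone/DMF with emulsifier-containing water, then infested with 10–20 Diabrotica balteata larvae. Efficacy (%) scored after 7 days from seedling growth: 100% = growth as untreated uninfested control, 0% = no seedlings grown.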

The test system of experiment [6] is adult brown dog ticks (Rhipicephalus sanguineus). The experiment can be described thus: Rhipicephalus sanguineus in-vitro contact test, adult brown dog ticks. The settings on record: 48 h, after 48 hours, read-out: efficacy (ticks dead or moribund); for pest or weed control at 5 µg/cm2, 500 g/ha: 5 μg/cm^2 (=500 g/ha); for pest or weed control at 1 µg/cm2, 100 g/ha: 1 μg/cm^2 (=100 g/ha). On the procedure:
Rhipicephalus sanguineus—In-Vitro Contact Tests with Adult Brown Dog Ticks
9 mg compound is solved in 1 mL acetone and diluted with acetone to the desired concentration. […] the test solution is filled in 25 mL glass test tubes and homogeneously distributed on the inner walls by rotation and tilting on a shaking device (2 h at 30 rpm). With a compound concentration of 900 ppm, an inner surface of 44.7 cm^2 and a homogeneous distribution, a dose of 5 μg/cm^2 is achieved.
After the solvent has evaporated, each test tube is filled with 5-10 adult brown dog ticks (Rhipicephalus sanguineus), closed with a perforated lid and incubated in a lying position at room temperature and relative humidity. After 48 hours efficacy is determined. The ticks are patted on the ground of the tubes and are incubated on a heating plate at 45-50° C. for at most 5 minutes Immotile or uncoordinated moving ticks, which are not able to escape the heat by climbing upwards, are marked as dead or moribund.
An efficacy of 100% means all ticks are dead or moribund; 0% means no ticks are dead or moribund.

The subject of experiment [7] is larvae of the southern green stink bug (Nezara viridula). The experiment can be described thus: Nezara viridula spray test. The settings on record: 96 h, 500 g/ha, barley plants, after 4 days. As to the method: Nezara viridula—Spray Test
Solvent: 78.0 parts by weight of acetone • • 1.5 parts by weight of dimethylformamide
as §1
To produce a suitable preparation of active compound, 1 part by weight of active compound is mixed with the stated amount of solvent, and the concentrate is diluted with water, containing an emulsifier concentration of 1000 ppm, to the desired concentration. Further test concentrations are prepared by dilution with emulsifier containing water.
Barley plants (Hordeum vulgare) infested with larvae of the southern green stink bug (Nezara viridula) are sprayed with a test solution containing the desired concentration of the active ingredient.
After 4 days mortality in % is determined. 100% means all the stink bugs have been killed; 0% means none of the stink bugs have been killed.

For the molecule `CC(NC(=O)c1cc(C(F)(F)F)cc(C(F)(F)F)c1)c1nccnc1-c1ccc(C(=O)N(C)C)cn1` (racemic) [Example I-38, (rac)-6-(3-{1-[3,5-Bis(trifluoromethyl)benzamido]ethyl}pyrazin-2-yl)-N,N-dimethylpyridine-3-carboxamide], the values for the mortality at 100 g/ha in experiment [1] and in experiment [2] were 90% and 100%, respectively. Besides, the pest or weed control at 1 µg/cm2, 100 g/ha came out at 100% in experiment [3] and 90% in experiment [4]. In addition, the pest or weed control at 5 µg/cm2, 500 g/ha in experiment [3] worked out at 100%.
As for `CC(NC(=O)c1cc(C(F)(F)F)cc(C(F)(F)F)c1)c1nccnc1-n1cc(C(=O)N(C)C)cn1` (racemic) [Example I-88, (rac)-1-(3-{1-[3,5-Bis(trifluoromethyl)benzamido]ethyl}pyrazin-2-yl)-N,N-dimethyl-1H-pyrazole-4-carboxamide], the mortality at 100 g/ha in experiment [1] was found to be 90%. This molecule registered a mortality at 100 g/ha in experiment [2] of 100%. Also, in experiment [5], the pest or weed control at 6.4 µg/disc, 20 g/ha turned out to be 100% and the pest or weed control at 32 µg/disc, 100 g/ha was 100%. Moreover, in experiment [3], the pest or weed control at 1 µg/cm2, 100 g/ha came out at 100% and the pest or weed control at 5 µg/cm2, 500 g/ha is 100%.
Take `CC(NC(=O)c1cc(Cl)cc(S(C)(=O)=O)c1)c1nccnc1-n1cc(C(F)(F)F)cn1` (racemic) [Example I-93, (rac)-3-Chloro-5-(methanesulfonyl)-N-[1-{3-[4-(trifluoromethyl)-1H-pyrazol-1-yl]pyrazin-2-yl}ethyl]benzamide]: the mortality at 100 g/ha in experiment [2] was determined as 100%. For the same molecule, in experiment [5], the pest or weed control at 6.4 µg/disc, 20 g/ha was 100% and the pest or weed control at 32 µg/disc, 100 g/ha amounted to 100%. Moreover, the pest or weed control at 5 µg/cm2, 500 g/ha in experiment [6] is 80%. This molecule showed a mortality at 500 g/ha in experiment [7] of 100%. In experiment [3], the pest or weed control at 1 µg/cm2, 100 g/ha is 100% and the pest or weed control at 5 µg/cm2, 500 g/ha was found to be 100%.
The molecule `CC(NC(=O)c1cc(C(F)(F)F)cc(C(F)(F)F)c1)c1nccnc1-n1cc(C(=O)N(C)CC2CC2)cn1` (racemic) [Example I-131, (rac)-1-(3-{1-[3,5-Bis(trifluoromethyl)benzamido]ethyl}pyrazin-2-yl)-N-(cyclopropylmethyl)-N-methyl-1H-pyrazole-4-carboxamide] came in with a mortality at 100 g/ha in experiment [2] of 100%. Also, in experiment [5], the pest or weed control at 6.4 µg/disc, 20 g/ha was 100% and the pest or weed control at 32 µg/disc, 100 g/ha is 100%. Further, in experiment [6], the pest or weed control at 1 µg/cm2, 100 g/ha turned out to be 80% and the pest or weed control at 5 µg/cm2, 500 g/ha stood at 80%. Besides, the mortality at 500 g/ha in experiment [7] was determined as 100%. In experiment [3], the pest or weed control at 1 µg/cm2, 100 g/ha was 100% and the pest or weed control at 5 µg/cm2, 500 g/ha stood at 100%.
`CC(NC(=O)c1cc(Cl)cc(OC(F)(F)F)c1)c1nccnc1-n1cc(C(=O)N(C)CC2CC2)cn1` (racemic) [Example I-133, (rac)-1-(3-{1-[3-Chloro-5-(trifluoromethoxy)benzamido]ethyl}pyrazin-2-yl)-N-(cyclopropylmethyl)-N-methyl-1H-pyrazole-4-carboxamide] displayed a mortality at 100 g/ha in experiment [2] of 100%. Also, the pest or weed control at 6.4 µg/disc, 20 g/ha in experiment [5] was found to be 100%. Also, the pest or weed control at 32 µg/disc, 100 g/ha in experiment [5] was 100%. The pest or weed control at 1 µg/cm2, 100 g/ha in experiment [6], in experiment [3] and in experiment [4] was 100% in each case. Besides, the pest or weed control at 5 µg/cm2, 500 g/ha in experiment [6], in experiment [3] and in experiment [4] (5 μg/cm^2 (=500 g/ha)) was 100% throughout. The mortality at 500 g/ha in experiment [7] came out at 100%.
The molecule `CC(NC(=O)c1cc(C(F)(F)F)cc(C(F)(F)F)c1)c1nccnc1-n1cc(C(=O)N(C)C2CC2)cn1` (racemic) [Example I-139, (rac)-1-(3-{1-[3,5-Bis(trifluoromethyl)benzamido]ethyl}pyrazin-2-yl)-N-cyclopropyl-N-methyl-1H-pyrazole-4-carboxamide] displayed a mortality at 100 g/ha in experiment [2] of 100%. For the same molecule, the pest or weed control at 32 µg/disc, 100 g/ha in experiment [5] is 80%. For the same molecule, in experiment [7], the mortality at 500 g/ha came to 100%. In experiment [3], the pest or weed control at 1 µg/cm2, 100 g/ha is 100% and the pest or weed control at 5 µg/cm2, 500 g/ha came to 100%.
On to `CCN(CC)C(=O)c1ccc(-c2nccnc2C(C)NC(=O)c2cc(C(F)(F)F)cc(C(F)(F)F)c2)nc1` (single isomer, unassigned) [Example I-160, 6-(3-{1-[3,5-Bis(trifluoromethyl)benzamido]ethyl}pyrazin-2-yl)-N,N-diethylpyridine-3-carboxamide], for which the mortality at 100 g/ha in experiment [1] was 90%; in experiment [2], 100%.
On the same counts, the results for `CC(NC(=O)c1cc(C(F)(F)F)cc(C(F)(F)F)c1)c1nccnc1-c1ccc(C(=O)N(C)CC2CC2)cn1` (single isomer, unassigned) [Example I-164, 6-(3-{1-[3,5-Bis(trifluoromethyl)benzamido]ethyl}pyrazin-2-yl)-N-(cyclopropylmethyl)-N-methylpyridine-3-carboxamide] are 90% and 100%.
With `CC(NC(=O)c1cc(C(F)(F)F)cc(C(F)(F)F)c1)c1nccnc1-c1ccc(C(=O)N2C[C@@H](C)O[C@@H](C)C2)cn1` (single isomer, unassigned) [Example I-166, N-[1-(3-{5-[(cis)-2,6-Dimethylmorpholine-4-carbonyl]pyridin-2-yl}pyrazin-2-yl)ethyl]-3,5-bis(trifluoromethyl)benzamide], the mortality at 100 g/ha in experiment [1] worked out at 90%; in experiment [2], 100%.
In experiment [1], `COc1ccc(-c2nccnc2C(C)NC(=O)c2cc(Cl)cc(OC(F)(F)F)c2)nc1` (stereo not drawn) [Example I-28] gave a mortality at 100 g/ha of 90%. Moreover, in experiment [5], the pest or weed control at 6.4 µg/disc, 20 g/ha came out at 100% and the pest or weed control at 32 µg/disc, 100 g/ha was found to be 80%. Also, in experiment [3], the pest or weed control at 1 µg/cm2, 100 g/ha was found to be 90% and the pest or weed control at 5 µg/cm2, 500 g/ha was found to be 80%.
Turning to `CCN(C)C(=O)c1cnc(-c2nccnc2[C@@H](C)NC(=O)c2cc(C(F)(F)F)cc(C(F)(F)F)c2)s1` [Example I-84, 2-(3-{(1R)-1-[3,5-bis(trifluoromethyl)benzamido]ethyl}pyrazin-2-yl)-N-ethyl-N-methyl-1,3-thiazole-5-carboxamide], the mortality at 100 g/ha in experiment [1] amounted to 90%.
Consider `CCN(C)C(=O)c1cnc(-c2ncc(C)nc2[C@H](C)NC(=O)c2cc(C(F)(F)F)cc(C(F)(F)F)c2)s1` [Example I-155, (+)-2-(3-{(1S)-1-[3,5-Bis(trifluoromethyl)benzamido]ethyl}-5-methylpyrazin-2-yl)-N-ethyl-N-methyl-1,3-thiazole-5-carboxamide], for which the mortality at 100 g/ha in experiment [2] is 100%. Further, in experiment [5], the pest or weed control at 6.4 µg/disc, 20 g/ha came to 100% and the pest or weed control at 32 µg/disc, 100 g/ha is 100%. Besides, the mortality at 500 g/ha in experiment [7] was 100%.
